Laboratory results as given in patent US10786577B2, “Pharmaceutical composition comprising glutatione disulfide and glutathione disulfide S-oxide” (OBSCHESTVO S OGRANICHENNOY OTVETSTVENNOSTJU “IVA FARM”, priority 2017, dated 2020).

How the values were obtained:
[1] = test system: glutathione-S-transferase (XE 2.5.1.18); test: Liver enzyme activity in rats with cyclophosphan hepatotoxicity; settings: rat liver cytosolic fraction; cyclophosphan 20 mg/kg for 10 days; test substance intraperitoneally 10 mg/kg (compound 2: 0.1 mg/kg)
reduced glutathione = test: Liver reduced glutathione in rats with cyclophosphan hepatotoxicity; settings: rat liver; cyclophosphan 20 mg/kg for 10 days; test substance intraperitoneally 10 mg/kg (compound 2: 0.1 mg/kg)
[2] = test system: glutathione reductase (XE 1.6.4.2); test: Liver enzyme activity in rats with cyclophosphan hepatotoxicity; settings: rat liver cytosolic fraction; cyclophosphan 20 mg/kg for 10 days; test substance intraperitoneally 10 mg/kg (compound 2: 0.1 mg/kg)
[3] = test system: glutathione peroxidase (XE 1.11.1.9); test: as above; settings: rat liver cytosolic fraction; cyclophosphan 20 mg/kg for 10 days; test substance intraperitoneally 10 mg/kg (compound 2: 0.1 mg/kg)
[4] = test system: glucose-6-phosphate dehydrogenase (XE 1.1.1.49); test: as above; settings: rat liver cytosolic fraction; cyclophosphan 20 mg/kg for 10 days; test substance intraperitoneally 10 mg/kg (compound 2: 0.1 mg/kg)
[5] = test system: cultured resident peritoneal rat macrophages; test: Intracellular calcium concentration [Ca2+]i with Fura-2AM in macrophages; type: cell-based

Compound	GST [1]	GSH (reduced glutathione) [μmol/g protein]	GR [2]	GP [3]	G-6-PDG [4]	[Ca2+]i peak ([5]; 200 μM extracellular ATP, macrophages in normal saline, basal level 75±18 nM) [nM]	average [Ca2+]i during plateau phase ([5]; 4 minutes after the addition of ATP (200 μM), normal saline) [nM]
NC(CCC(=O)NC(CS[S+]([O-])CC(NC(=O)CCC(N)C(=O)O)C(=O)NCC(=O)O)C(=O)NCC(=O)O)C(=O)O (stereo not shown) [Example 1, glutathione disulfide S-oxide]	1857 ± 120 μmol/(min × g protein	11.21 ± 0.56	117.8 ± 12.6 μmol/(min × g protein	27.9 ± 2.2 μmol/(min × g protein	98.1 ± 13.3 μmol/(min × g protein		
Nc1ncnc2c1ncn2[C@@H]1O[C@H](COP(=O)(O)OP(=O)(O)OP(=O)(O)O)[C@@H](O)[C@H]1O [ATP]						820 ± 105	460 ± 115
